Target: T1, human histamine H3 receptor (Homo sapiens, UniProt Q9Y5N1)
T1 construct: endogenous in cells; host or cells: HT1080-Gqαi5 RAGE clone (RAGE-H3), human fibrosarcoma line; integrated RAGE vector pFG8-HH3 supplies exon 1, the cell's own gene supplies the other exons
Experiment: Competition radioligand binding assay with [125I]iodoproxyfan on membranes of RAGE-H3 (HT1080-Gqαi5) cells expressing human H3 receptor
Conditions: ~0.15 nM [125I]iodoproxyfan, 1.5 hrs at room temperature, head does not name the quantity (apparent Ki by Cheng-Prussof)
Procedure: Representative compounds of the present invention that were prepared by the procedures of Examples 1-83 were evaluated in binding assays against cells expressing human H3 receptor by the following procedure.
[^125I]iodoproxyfan (2000 Ci/mmol) was obtained from Amersham Bioscience (Piscataway, N.J.). All other chemicals were either from Sigma-Aldrich (St. Louis, Mo.) or Tocris Cookson Inc. (Ellisville, Mo.).
The human histamine H3 receptor was stably expressed in HT1080 cells containing the chimeric G-protein, Gq[…]i5 (Coward et al., Anal Biochem 1999; 270:242-8). HT1080-Gqαi5 cells were grown in alpha-modified MEM containing 10% fetal bovine serum and 7 μg/ml blasticidin at 37° C. in 5% CO2/95% atmosphere. Cells (4.8×10^9) were irradiated with 50 rads from a ^137Cs source and the pFG8-HH3 RAGE (Random Activation of Gene Expression; see Harrington et al., Nature Biotechnology. 2001; 19:440-45) vector was subsequently integrated into the cells via electroporation (250V, 600 μF, 50Ω). The RAGE vector pFG8-HH3 contained cDNA sequence coding for the first exon (83 amino acids) of human H3 receptor. After electroporation, cells were plated in T75 flasks and grown in alpha-modified MEM. The culture medium was replaced 48 hrs after electroporation with alpha-modified MEM, 10% fetal bovine serum, 500 μg/ml hygromycin B and 3 μg/ml puromycin. Medium was replaced every four days during cell expansion. To identify RAGE activated cells expressing the H3 receptor, pools of approximately 10,000 colonies (5×10^7-1.5×10^8 cells total) were screened by PCR for the desired gene product (using primers specific to the RAGE vector and exon 2 of the H3 receptor). […] Positive 100 cells/well pools were identified by PCR, confirmed by sequencing, and subsequently subcloned to 0.8 cells/well. Once clones expressing the H3 receptor were identified by PCR analysis, assays (FLIPR or radioligand binding) were performed to confirm that the activated gene produced functional protein. The protein expression in the initial clones obtained from the RAGE library was increased by growth in the presence of methotrexate. Since the integrated RAGE vector contains the DHFR gene, such treatment selects for cells that have amplified the genetic locus containing the RAGE insert. Subclones obtained after methotrexate amplification were tested for functional activity in FLIPR assays to identify the clone that was most suitable for HTS. The final HT1080-Gqαi5 RAGE clone (RAGE-H3) expressing the human histamine H3 receptor was grown in alpha-modified MEM containing 10% fetal bovine serum, 3 μg/ml puromycin, 500 μg/ml hygromycin B, 3.2 μM methotrexate at 37° C. in 5% CO2/95% atmosphere.
RAGE-H3 cells (10^9) were washed twice with cold PBS, scraped off the plates, and centrifuged at 1000×g for 5 minutes. Cells were resuspended in ice-cold 10 mM Tris HCl, pH 7.4, containing 5 mM EDTA and protease inhibitor cocktail tablets (Roche Molecular Biochemicals). After incubating on ice for 10 min, the cells were homogenized with a dounce homogenizer or a polytron tissue grinder, and centrifuged at 1000×g for 10 min at 4° C. The resulting supernatant was centrifuged at 32,000×g for 30 min at 4° C. The membrane pellets were resuspended in 50 mM Tris HCl, pH 7.4, and stored at −80° C. until use. Protein concentration was determined by the Bradford method (Bio-Rad Laboratories, CA).
Binding assays were carried out in 96-well polypropylene plates in 50 mM Tris HCl, pH 7.4, containing 1 mM EDTA. Reaction mixtures contained 100 μl of membrane suspension, 50 μl of 4% DMSO, and 50 μl of increasing amounts of [^125I]iodoproxyfan (final concentration 0.0005-1.8 nM for human H3 receptor saturation binding assay). Nonspecific binding was defined by adding 10 μM clobenpropit to the reaction mixtures. […]

T1 sequence (Q9Y5N1 whole entry): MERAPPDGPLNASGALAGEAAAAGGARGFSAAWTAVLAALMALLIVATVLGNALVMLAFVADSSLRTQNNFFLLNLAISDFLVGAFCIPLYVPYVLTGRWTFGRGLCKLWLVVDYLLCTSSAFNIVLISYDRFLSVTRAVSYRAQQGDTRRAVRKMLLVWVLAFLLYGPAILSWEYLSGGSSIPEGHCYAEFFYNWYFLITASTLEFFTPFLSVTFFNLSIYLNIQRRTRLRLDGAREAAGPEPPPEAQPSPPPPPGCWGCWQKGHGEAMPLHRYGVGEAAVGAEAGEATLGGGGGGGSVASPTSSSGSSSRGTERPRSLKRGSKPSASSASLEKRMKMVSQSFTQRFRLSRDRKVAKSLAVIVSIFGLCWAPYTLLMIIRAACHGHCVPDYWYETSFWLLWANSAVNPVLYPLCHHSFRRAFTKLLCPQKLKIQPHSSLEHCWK

Ki	Structure (SMILES)
< 1000 nM	FC(F)(F)c1cc(-c2ccccc2)n(-c2ccc(OCCCN3CCOCC3)cc2)n1 [Example 53, 4-{3-[4-(5-Phenyl-3-trifluoromethyl-pyrazol-1-yl)-phenoxy]-propyl}-morpholine]
< 10 nM	CC(C)c1cc(C(C)C)n(-c2ccc(OC3CCN(C4CCC4)CC3)cc2)n1 [Example 32, 1-Cyclobutyl-4-[4-(3,5-diisopropylpyrazol-1-yl)phenoxy]piperidine]
